Source: patent US20080200454A1, “CARBON-LINKED TETRAHYDRO-PYRAZOLO-PYRIDINE MODULATORS OF CATHEPSIN S” (priority 2007, published 2008)
Where two headings read alike, the source gives them in different places.

Molecular target: Recombinant human cathepsin S (CatS) (Homo sapiens, UniProt P25774)
Assay: Recombinant human cathepsin S (CatS) inhibition assay, fluorogenic substrate Z-Valine-Valine-Arginine-AMC;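 further: Baculovirus-expressed CatS in pH 5.0 sodium acetate buffer with DTT and NaCl, fluorescence read each minute over 20 min, inhibition derived from rate slope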

Chain of Recombinant human cathepsin S (CatS) (P25774 115-331): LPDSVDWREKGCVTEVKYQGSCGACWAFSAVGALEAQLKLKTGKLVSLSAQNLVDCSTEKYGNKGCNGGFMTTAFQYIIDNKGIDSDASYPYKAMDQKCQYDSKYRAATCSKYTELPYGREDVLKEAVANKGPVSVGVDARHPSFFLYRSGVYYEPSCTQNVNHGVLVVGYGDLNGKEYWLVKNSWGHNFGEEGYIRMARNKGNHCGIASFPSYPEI

IC50 [µM]	Compound	IC50 (CatS IC50) [µM]
0.37	CS(=O)(=O)N1CCc2c(c(-c3ccc(Cl)c(C#Cc4ccc(CNCc5ccc(Cl)cc5)cc4)c3)nn2C[C@H](O)CN2CCOCC2)C1 [Example 264, (R)-1-[3-(4-Chloro-3-{4-[(4-chloro-benzylamino)-methyl]-phenylethynyl}-phenyl)-5-methanesulfonyl-4,5,6,7-tetrahydro-pyrazolo[4,3-c]pyridin-1-yl]-3-morpholin-4-yl-propan-2-ol]	
0.14	C[C@H]1COCCN1C[C@H](O)Cn1nc(-c2ccc(Cl)c(C#Cc3ccc(CNCc4ccc(Cl)cc4)cc3)c2)c2c1CCN(S(C)(=O)=O)C2 [Example 265, (2S)-1-[3-(4-Chloro-3-{4-[(4-chloro-benzylamino)-methyl]-phenylethynyl}-phenyl)-5-methanesulfonyl-4,5,6,7-tetrahydro-pyrazolo[4,3-c]pyridin-1-yl]-3-((3S)-3-methyl-morpholin-4-yl)-propan-2-ol]	
0.01	C[C@H]1COCCN1CCCn1nc(-c2ccc(Cl)c(C#Cc3ccc(Cl)c(CNC[C@@H]4CCCO4)c3)c2)c2c1CCN(C(=O)C(N)=O)C2 [Example 267, 2-{3-[4-Chloro-3-(4-chloro-3-{[((2S)-tetrahydro-furan-2-ylmethyl)-amino]-methyl}-phenylethynyl)-phenyl]-1-[3-((3S)-3-methyl-morpholin-4-yl)-propyl]-1,4,6,7-tetrahydro-pyrazolo[4,3-c]pyridin-5-yl}-2-oxo-acetamide]	
0.02	C[C@H]1COCCN1CCCn1nc(-c2ccc(Cl)c(C#Cc3ccc(Cl)c(CNC[C@H]4CCCO4)c3)c2)c2c1CCN(C(=O)C(N)=O)C2 [Example 268, 2-{3-[4-Chloro-3-(4-chloro-3-{[((2R)-tetrahydro-furan-2-ylmethyl)-amino]-methyl}-phenylethynyl)-phenyl]-1-[3-((3S)-3-methyl-morpholin-4-yl)-propyl]-1,4,6,7-tetrahydro-pyrazolo[4,3-c]pyridin-5-yl}-2-oxo-acetamide]	
0.02	C[C@H]1COCCN1CCCn1nc(-c2ccc(Cl)c(C#Cc3ccc(Cl)c(CNCCCO)c3)c2)c2c1CCN(C(=O)C(N)=O)C2 [Example 271, (S)-2-{3-(4-Chloro-3-{4-chloro-3-[(3-hydroxy-propylamino)-methyl]-phenylethynyl}-phenyl)-1-[3-(3-methyl-morpholin-4-yl)-propyl]-1,4,6,7-tetrahydro-pyrazolo[4,3-c]pyridin-5-yl}-2-oxo-acetamide]	
0.03	C[C@H]1COCCN1CCCn1nc(-c2ccc(Cl)c(C#Cc3ccc(Cl)c(CN(CCO)CCO)c3)c2)c2c1CCN(C(=O)C(N)=O)C2 [Example 272, (S)-2-{3-[3-(3-{[Bis-(2-hydroxy-ethyl)-amino]-methyl}-4-chloro-phenylethynyl)-4-chloro-phenyl]-1-[3-(3-methyl-morpholin-4-yl)-propyl]-1,4,6,7-tetrahydro-pyrazolo[4,3-c]pyridin-5-yl}-2-oxo-acetamide]	
0.04	CNCCCNC(=O)c1cc(C#Cc2cc(-c3nn(CCCN4CCOC[C@@H]4C)c4c3CN(C(=O)C(N)=O)CC4)ccc2Cl)ccc1Cl [Example 273, (S)-5-(5-{5-Aminooxalyl-1-[3-(3-methyl-morpholin-4-yl)-propyl]-4,5,6,7-tetrahydro-1H-pyrazolo[4,3-c]pyridin-3-yl}-2-chloro-phenylethynyl)-2-chloro-N-(3-methylamino-propyl)-benzamide]	
0.05	C[C@H]1COCCN1CCCn1nc(-c2ccc(Cl)c(C#Cc3ccc(Cl)c(COC4CCNC4)c3)c2)c2c1CCN(C(=O)C(N)=O)C2 (stereo partly drawn) [Example 275, (S)-2-[3-[4-Chloro-3-[4-chloro-3-(pyrrolidin-3-yloxymethyl)-phenylethynyl]-phenyl}-1-[3-(3-methyl-morpholin-4-yl)-propyl]-1,4,6,7-tetrahydro-pyrazolo[4,3-c]pyridin-5-yl}-2-oxo-acetamide]	
0.2	C[C@H]1COCCN1CCCn1nc(-c2ccc(Cl)c(C#Cc3ccc4c(c3)CN(C3CC3)CC4)c2)c2c1CCN(S(C)(=O)=O)C2 [Example 277, 7-({2-Chloro-5-[1-{3-[(3S)-3-methylmorpholin-4-yl]propyl}-5-(methylsulfonyl)-4,5,6,7-tetrahydro-1H-pyrazolo[4,3-c]pyridin-3-yl]phenyl}ethynyl)-2-cyclopropyl-1,2,3,4-tetrahydroisoquinoline]	
0.11	CC(C)N1CCc2ccc(C#Cc3cc(-c4nn(CCCN5CCOC[C@@H]5C)c5c4CN(S(C)(=O)=O)CC5)ccc3Cl)cc2C1 [Example 279, 7-({2-Chloro-5-[1-{3-[(3S)-3-methylmorpholin-4-yl]propyl}-5-(methylsulfonyl)-4,5,6,7-tetrahydro-1H-pyrazolo[4,3-c]pyridin-3-yl]phenyl}ethynyl)-2-(1-methylethyl)-1,2,3,4-tetrahydroisoquinoline]	

Further lines, the compound ahead of its results:

Compound	IC50 [µM]	IC50 (CatS IC50) [µM]
NC(=O)C(=O)N1CCc2c(c(-c3ccc(Cl)c(C#Cc4ccc(CNCc5ccc(Cl)cc5)cc4)c3)nn2C[C@@H](O)CN2CCOCC2)C1 [Example 253, (S)-2-[3-(4-Chloro-3-{4-[(4-chloro-benzylamino)-methyl]-phenylethynyl}-phenyl)-1-(2-hydroxy-3-morpholin-4-yl-propyl)-1,4,6,7-tetrahydro-pyrazolo[4,3-c]pyridin-5-yl]-2-oxo-acetamide]	0.06	
NC(=O)C(=O)N1CCc2c(c(-c3ccc(Cl)c(C#Cc4ccc(CNCc5ccc(Cl)cc5)cc4)c3)nn2C[C@H](O)CN2CCOCC2)C1 [Example 254, (R)-2-[3-(4-Chloro-3-{4-[(4-chloro-benzylamino)-methyl]-phenylethynyl}-phenyl)-1-(2-hydroxy-3-morpholin-4-yl-propyl)-1,4,6,7-tetrahydro-pyrazolo[4,3-c]pyridin-5-yl]-2-oxo-acetamide]		0.24
C[C@H]1COCCN1C[C@H](O)Cn1nc(-c2ccc(Cl)c(C#Cc3ccc(CNCc4ccc(Cl)cc4)cc3)c2)c2c1CCN(C(=O)C(N)=O)C2 [Example 255, 2-{3-(4-Chloro-3-{4-[(4-chloro-benzylamino)-methyl]-phenylethynyl}-phenyl)-1-[(2S)-2-hydroxy-3-((3S)-3-methyl-morpholin-4-yl)-propyl]-1,4,6,7-tetrahydro-pyrazolo[4,3-c]pyridin-5-yl}-2-oxo-acetamide]		0.07
C[C@H]1COCCN1C[C@@H](O)Cn1nc(-c2ccc(Cl)c(C#Cc3ccc(CNCc4ccc(Cl)cc4)cc3)c2)c2c1CCN(C(=O)C(N)=O)C2 [Example 256, 2-{3-(4-Chloro-3-{4-[(4-chloro-benzylamino)-methyl]-phenylethynyl}-phenyl)-1-[(2R)-2-hydroxy-3-((3S)-3-methyl-morpholin-4-yl)-propyl]-1,4,6,7-tetrahydro-pyrazolo[4,3-c]pyridin-5-yl}-2-oxo-acetamide]		0.05
C[C@H]1COCCN1C[C@H](O)Cn1nc(-c2ccc(Cl)c(C#Cc3ccc(CNCc4ccc(Cl)cc4)cc3)c2)c2c1CCN(C(N)=O)C2 [Example 257, 3-(4-Chloro-3-{4-[(4-chloro-benzylamino)-methyl]-phenylethynyl}-phenyl)-1-[(2S)-2-hydroxy-3-((3S)-3-methyl-morpholin-4-yl)-propyl]-1,4,6,7-tetrahydro-pyrazolo[4,3-c]pyridine-5-carboxylic acid amide]	0.07	
NC(=O)N1CCc2c(c(-c3ccc(Cl)c(C#Cc4ccc(CNCc5ccc(Cl)cc5)cc4)c3)nn2C[C@@H](O)CN2CCOCC2)C1 [Example 259, (S)-3-(4-Chloro-3-{4-[(4-chloro-benzylamino)-methyl]-phenylethynyl}-phenyl)-1-(2-hydroxy-3-morpholin-4-yl-propyl)-1,4,6,7-tetrahydro-pyrazolo[4,3-c]pyridine-5-carboxylic acid amide]	0.08	
CS(=O)(=O)N1CCc2c(c(-c3ccc(Cl)c(C#Cc4ccc(CNCc5ccc(Cl)cc5)cc4)c3)nn2C[C@H](O)CN2CCSCC2)C1 [Example 262, (R)-1-[3-(4-Chloro-3-{4-[(4-chloro-benzylamino)-methyl]-phenylethynyl}-phenyl)-5-methanesulfonyl-4,5,6,7-tetrahydro-pyrazolo[4,3-c]pyridin-1-yl]-3-thiomorpholin-4-yl-propan-2-ol]		0.12
C[C@H]1COCCN1CCCn1nc(-c2ccc(Cl)c(C#Cc3ccc(Cl)c(CNC4CCCC4)c3)c2)c2c1CCN(C(=O)C(N)=O)C2 [Example 269, (S)-2-{3-[4-Chloro-3-(4-chloro-3-cyclopentylaminomethyl-phenylethynyl)-phenyl]-1-[3-(3-methyl-morpholin-4-yl)-propyl]-1,4,6,7-tetrahydro-pyrazolo[4,3-c]pyridin-5-yl}-2-oxo-acetamide]		0.01
CCCNCc1cc(C#Cc2cc(-c3nn(CCCN4CCOC[C@@H]4C)c4c3CN(C(=O)C(N)=O)CC4)ccc2Cl)ccc1Cl [Example 270, (S)-2-{3-[4-Chloro-3-(4-chloro-3-propylaminomethyl-phenylethynyl)-phenyl]-1-[3-(3-methyl-morpholin-4-yl)-propyl]-1,4,6,7-tetrahydro-pyrazolo[4,3-c]pyridin-5-yl}-2-oxo-acetamide]		0.02
C[C@H]1COCCN1CCCn1nc(-c2ccc(Cl)c(C#Cc3ccc(Cl)c(COCCCO)c3)c2)c2c1CCN(C(=O)C(N)=O)C2 [Example 274, (S)-2-{3-{4-Chloro-3-[4-chloro-3-(3-hydroxy-propoxymethyl)-phenylethynyl]-phenyl}-1-[3-(3-methyl-morpholin-4-yl)-propyl]-1,4,6,7-tetrahydro-pyrazolo[4,3-c]pyridin-5-yl}-2-oxo-acetamide]		0.04
CS(=O)(=O)N1CCc2c(c(-c3ccc(Cl)c(C#Cc4ccc5c(c4)CN(C4CC4)CC5)c3)nn2CCCN2CCN(C3CC3)CC2)C1 [Example 276, 7-[(2-Chloro-5-{1-[3-(4-cyclopropylpiperazin-1-yl)propyl]-5-(methylsulfonyl)-4,5,6,7-tetrahydro-1H-pyrazolo[4,3-c]pyridin-3-yl}phenyl)ethynyl]-2-cyclopropyl-1,2,3,4-tetrahydroisoquinoline]		0.18
C[C@H]1COCCN1CCCn1nc(-c2ccc(Cl)c(C#Cc3ccc4c(c3)CNCC4)c2)c2c1CCN(S(C)(=O)=O)C2 [Example 278, 7-({2-Chloro-5-[1-{3-[(3S)-3-methylmorpholin-4-yl]propyl}-5-(methylsulfonyl)-4,5,6,7-tetrahydro-1H-pyrazolo[4,3-c]pyridin-3-yl]phenyl}ethynyl)-1,2,3,4-tetrahydroisoquinoline]		0.11
